Measured values: patent US20070009544A1, “Anti-allergic complex molecules” (priority 1999, published 2007)
Values after ≈ are worked out from the molar mass of the structure shown. Numbered stars: 1 amine (or outer) side, 2 acyl side, 3 side chain; on linkers, the order of the positions; unused ones are H or OH. Square brackets hold non-standard residues; d marks the D form. Peptide text beside a SMILES is read from it. Phe(4-NH2) = Nc1ccc(C[C@H](N)C(=O)O)cc1; Suc = O=C(CCC(=O)[*:2])[*:1]

Legend:
[1] = system: abdominal skin of C.R rats; assay: Rat skin test: intradermal injection of peptide, then intradermal compound 48/80 or vehicle, wheal area; format: in vivo; conditions: for Mean Wheal Area ± STD, Compound 48/80 / Wheal Area, Compound 48/80 (representative experiment): 0.5 hour before allergic induction; for Mean Wheal Area ± STD, Vehicle / Wheal Area, Vehicle (representative experiment): 0.5 hour before; for Mean Wheal Area ± STD, Vehicle: vehicle instead of compound 48/80
Procedure: The hair of the abdominal area of C.R rats was carefully removed with an electric clipper and a depilatory cream. In each animal the abdominal area was divided to six equal zones that were marked by pen. Each zone was either subjected to peptide treatment or served as a control. In the first set of experiments, the peptide was topically applied as follows: 36 μl of peptide solution at the indicated concentration (dissolved in 72% DMSO in saline) was applied on desired abdominal area. In the second set of experiments, the peptide was injected intradermally as follows: 20 μl of peptide solution at different concentrations (dissolved in 10% DMSO in saline) was injected intradermally to an indicated abdominal area using a 27-gauge sterile needle.
Skin tests were performed 0.5, 1 or 2 hours following application of the peptide. Skin tests were performed by injecting intradermally 20 μl of the allergen (0.1 mg/ml compound 48/80 dissolved in saline) or saline alone, into the center of each marked area on the abdominal skin using a 27-gauge sterile needle. The allergic response was monitored by outlining with a marker the wheals which developed in response to allergen or saline treatment.
To quantitate the skin test results, the marker signs were transferred onto paper with scotch tape. The areas of the wheals were outlined and calculated by a computerized planimeter (Hewlett-Packard), as previously described (Sussman et al., 1982).
Tables 10-16 presents the mean areas of the wheals, which developed in response to intradermal injection of each of the tested peptides, followed by either compound 48/80 or DDW injection applied after 0.5 or 1 hour. Two doses were tested for each peptide-20 and 200 μg (injection of 20 μl from a stock solution of 1 mg/ml or 10 mg/m respectively).
Skin tests on rats using compound 48/80 as the allergen assessed the ability of the peptides of the present invention to block allergic cutaneous reactions. The abdominal skin of the rats was subjected to peptide (indicated concentrations are listed in Tables 17A-17B below) or vehicle treatment (intradermal injection); the allergic response was induced by intradermal injection of compound 48/80 at various times; and the allergic response was quantified by calculating the area of the resultant allergic wheals.

[2] = system: purified rat peritoneal mast cells; assay: Histamine secretion from intact mast cells incubated with peptide alone (secretagogue side effect); conditions: for Secretagogue (histamine secretion following incubation of mast cell with different concentrations of each peptide): Table 9, no allergen; for Secretagogue (histamine secretion following incubation of mast cell with different concentrations of each peptide) / basal level of histamine secretion compared to control cells: peptide alone; for histamine secretion from mast cells on incubation with increasing concentrations of peptide alone: no additional allergen; for basal level of histamine secretion compared to control cells: increasing concentrations
[3] = system: purified rat peritoneal mast cells; format: cell-based; conditions: for maximal inhibition of compound 48/80 induced histamine secretion: 600 μg/ml peptide, compound 48/80 concentration not given; for Inhibitor (extent of inhibition of histamine secretion from mast cells): Table 9, incubation with different concentrations of each peptide, then induction of the allergic reaction
Procedure: 37° C. […] Each data point represents the average of duplicate measurements. The spontaneously released histamine was subtracted.
First, the effect of compound 48/80 on exocytosis from intact mast cells was determined. […] Histamine release was determined and is presented as the net secretion that is % of the total cellular histamine following subtraction of the spontaneously released histamine. Half-maximal release was obtained at 0.1 μg/ml while maximal release was obtained at 1-10 μg/ml. Accordingly, in order to analyze the potential of each peptide to block histamine secretion, histamine secretion was induced with 5 μg/ml compound 48/80, a concentration that induces a maximal histamine release, while the cells were incubated in the presence of increasing concentrations of each peptide.
In order to investigate the ability of these peptides to block allergen-induced exocytosis, the peptides were examined for their ability to block compound 48/80 induced histamine secretion from intact mast cells in vitro. Mast cells were incubated with different concentrations of each peptide, followed by induction of histamine secretion by compound 48/80.

[4] = intradermal peptide 0.5 hour before allergic induction

Mean Wheal Area ± STD, Vehicle ([1]; intradermal peptide 1 mg/ml) | Mean Wheal Area ± STD, Vehicle ([1]; intradermal peptide 10 mg/ml) | IC50, compound 48/80 induced histamine secretion [3] | Wheal Area, Vehicle (representative experiment) ([1]; intradermal peptide 1 mg/ml) | Wheal Area, Vehicle (representative experiment) ([1]; intradermal peptide 10 mg/ml) | Structure (SMILES) | block of compound 48/80 induced allergic reaction in vivo, rat skin ([1]; intradermal peptide) | Mean Wheal Area ± STD, Compound 48/80 ([1]; intradermal peptide 1 mg/ml) | Mean Wheal Area ± STD, Compound 48/80 ([1]; intradermal peptide 10 mg/ml) | reduction of compound 48/80 induced allergic reaction [1, 4] | Secretagogue (histamine secretion following incubation of mast cell with different concentrations of each peptide) [2] | histamine secretion from mast cells on incubation with increasing concentrations of peptide alone [2] | basal level of histamine secretion compared to control cells [2] | maximal inhibition of compound 48/80 induced histamine secretion [3] | Inhibitor (extent of inhibition of histamine secretion from mast cells) [3] | reduction of compound 48/80 induced allergic reaction ([1]; intradermal peptide, lower dose or 1 hour before allergic induction) | Wheal Area, Compound 48/80 (representative experiment) ([1]; intradermal peptide 1 mg/ml) | Wheal Area, Compound 48/80 (representative experiment) ([1]; intradermal peptide 10 mg/ml)
71.6 ± 13.8 (n = 5) mm^2 | 66.7 ± 10.1 (n = 5) mm^2 | 320 µg/mL (≈ 115 µM) |  |  | CC(C)C[C@H](NC(=O)CNC(=O)[C@H](CS)NC(=O)[C@H](CCC(=O)O)NC(=O)[C@H](CCCCN)NC(=O)[C@H](CC(C)C)NC(=O)[C@H](CC(N)=O)NC(=O)[C@H](CCC(=O)O)NC(=O)[C@H](CCCCN)NC(=O)[C@@H]1CCCN1C(=O)[C@H](C)NC(=O)[C@H](CC(C)C)NC(=O)[C@H](CC(C)C)NC(=O)[C@H](C)NC(=O)[C@H](CC(C)C)NC(=O)[C@H](CC(C)C)NC(=O)[C@@H](NC(=O)[C@H](C)NC(=O)[C@@H]1CCCN1C(=O)[C@H](CC(C)C)NC(=O)[C@H](CC(C)C)NC(=O)[C@H](C)NC(=O)[C@@H](NC(=O)[C@H](C)NC(=O)[C@H](C)NC(=O)CCC(=O)O)C(C)C)C(C)C)C(=O)N[C@@H](Cc1ccc(O)cc1)C(=O)O [WALL012] (Suc-AAVALLPAVLLALLAPKENLKECGLY-OH; C-terminus assumed) | effectively block the allergic response in vivo | 104.8 ± 12.6 (n = 5) mm^2 | 75.1 ± 8.5 (n = 5)** mm^2 | significant inhibition | − | did not result in histamine secretion | minor inhibition of the basal level of histamine secretion | 97.5% | +++ (+++ Potent inhibitor (≧80% inhibition)) |  |  | 
74.7 ± 12.0 (n = 4) mm^2 | 77.3 ± 13.5 (n = 4) mm^2 | 245 µg/mL (≈ 89.5 µM) |  |  | CC(C)C[C@H](NC(=O)CNC(=O)[C@H](CS)NC(=O)[C@H](CCC(=O)O)NC(=O)[C@H](CCCCN)NC(=O)[C@H](CC(C)C)NC(=O)[C@H](CC(N)=O)NC(=O)[C@H](C)NC(=O)[C@H](CCCCN)NC(=O)[C@@H]1CCCN1C(=O)[C@H](C)NC(=O)[C@H](CC(C)C)NC(=O)[C@H](CC(C)C)NC(=O)[C@H](C)NC(=O)[C@H](CC(C)C)NC(=O)[C@H](CC(C)C)NC(=O)[C@@H](NC(=O)[C@H](C)NC(=O)[C@@H]1CCCN1C(=O)[C@H](CC(C)C)NC(=O)[C@H](CC(C)C)NC(=O)[C@H](C)NC(=O)[C@@H](NC(=O)[C@H](C)NC(=O)[C@H](C)NC(=O)CCC(=O)O)C(C)C)C(C)C)C(=O)N[C@@H](Cc1ccc(O)cc1)C(=O)O [WALL013] (Suc-AAVALLPAVLLALLAPKANLKECGLY-OH; C-terminus assumed) | effectively block the allergic response in vivo | 89.7 ± 13.7 (n = 4)** mm^2 | 96.4 ± 28.4 (n = 4)* mm^2 | significantly reduced | − | did not result in histamine secretion | minor inhibition of the basal level of histamine secretion | 100% | +++ (+++ Potent inhibitor (≧80% inhibition)) |  |  | 
87.2 ± 1.9 (n = 2) mm^2 | 100.1 ± 38.9 (n = 2) mm^2 | 230 µg/mL (≈ 82.8 µM) |  |  | CC(C)C[C@H](NC(=O)CNC(=O)[C@H](CS)NC(=O)[C@H](CCC(=O)O)NC(=O)[C@H](CCCCN)NC(=O)[C@H](CC(C)C)NC(=O)[C@H](CC(N)=O)NC(=O)[C@H](CC(N)=O)NC(=O)[C@H](CCCCN)NC(=O)[C@@H]1CCCN1C(=O)[C@H](C)NC(=O)[C@H](CC(C)C)NC(=O)[C@H](CC(C)C)NC(=O)[C@H](C)NC(=O)[C@H](CC(C)C)NC(=O)[C@H](CC(C)C)NC(=O)[C@@H](NC(=O)[C@H](C)NC(=O)[C@@H]1CCCN1C(=O)[C@H](CC(C)C)NC(=O)[C@H](CC(C)C)NC(=O)[C@H](C)NC(=O)[C@@H](NC(=O)[C@H](C)NC(=O)[C@H](C)NC(=O)CCC(=O)O)C(C)C)C(C)C)C(=O)N[C@@H](Cc1ccc(N)cc1)C(=O)O [WALL014] (Suc-AAVALLPAVLLALLAPKNNLKECGL[Phe(4-NH2)]-OH; C-terminus assumed) | effectively block the allergic response in vivo | 108.1 ± 15.0 (n = 2) mm^2 | 91.5 ± 34.9 (n = 2) mm^2 | significantly reduced | − | did not result in histamine secretion |  | 83% | +++ (+++ Potent inhibitor (≧80% inhibition)) | no significant inhibition |  | 
 |  | 300 µg/mL (≈ 107 µM) | 110.4 mm^2 | 89.7 mm^2 | CC(C)C[C@H](NC(=O)CNC(=O)[C@H](CS)NC(=O)[C@H](CCC(=O)O)NC(=O)[C@H](CCCCN)NC(=O)[C@H](CC(C)C)NC(=O)[C@H](CC(N)=O)NC(=O)[C@H](CCC(N)=O)NC(=O)[C@H](CCCCN)NC(=O)[C@@H]1CCCN1C(=O)[C@H](C)NC(=O)[C@H](CC(C)C)NC(=O)[C@H](CC(C)C)NC(=O)[C@H](C)NC(=O)[C@H](CC(C)C)NC(=O)[C@H](CC(C)C)NC(=O)[C@@H](NC(=O)[C@H](C)NC(=O)[C@@H]1CCCN1C(=O)[C@H](CC(C)C)NC(=O)[C@H](CC(C)C)NC(=O)[C@H](C)NC(=O)[C@@H](NC(=O)[C@H](C)NC(=O)[C@H](C)NC(=O)CCC(=O)O)C(C)C)C(C)C)C(=O)N[C@@H](Cc1ccc(O)cc1)C(=O)O [WALL015] (Suc-AAVALLPAVLLALLAPKQNLKECGLY-OH; C-terminus assumed) | effectively block the allergic response in vivo |  |  | reduced the allergic reaction | − | did not result in histamine secretion | minor inhibition of the basal level of histamine secretion | 75% | ++ (++ Moderate inhibitor (50%-70% inhibition)) |  | 100.1 mm^2 | 75.3 mm^2
